Experimental data: paper PMC9572521, “Synthesis, Docking Studies and Pharmacological Evaluation of Serotoninergic Ligands Containing a 5-Norbornene-2-Carboxamide Nucleus” (Molecules, 2022)
Read-outs that look alike come from different tables or passages of the source.

Experiments:
5-HT1A receptor = biological target: T1, 5-HT1A receptor (Rattus norvegicus, UniProt P19327); experiment: Functional 5-HT1A receptor [35S]GTPγS assay (agonist mode); type: biochemical; conditions: [35S]GTPγS; for agonist activity at the 5-HT1A receptor: result in words;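 as to all read-outs here: male Sprague-Dawley rat hippocampal membranes incubated 90 min at 37 °C, bound label counted by scintillation after filtration, non-specific binding defined with 100 µM unlabeled GTPγS, one-site curve fit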
T1 construct: 15 μg/mL of hippocampus homogenate was incubated in triplicate with 0.8 nM; from tissue; host or cells: rat hippocampus homogenate
T1 sequence (P19327 1-422): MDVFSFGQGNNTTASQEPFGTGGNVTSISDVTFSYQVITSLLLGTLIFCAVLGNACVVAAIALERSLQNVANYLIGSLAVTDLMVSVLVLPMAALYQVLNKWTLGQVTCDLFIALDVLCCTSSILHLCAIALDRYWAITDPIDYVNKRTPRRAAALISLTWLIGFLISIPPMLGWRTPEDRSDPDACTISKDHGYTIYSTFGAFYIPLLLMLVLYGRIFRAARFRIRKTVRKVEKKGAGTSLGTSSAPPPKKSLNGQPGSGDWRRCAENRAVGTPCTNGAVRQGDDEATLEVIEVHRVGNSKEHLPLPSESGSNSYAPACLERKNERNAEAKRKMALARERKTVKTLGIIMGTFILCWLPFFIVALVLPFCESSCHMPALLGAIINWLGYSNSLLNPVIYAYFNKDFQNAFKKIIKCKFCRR

D2 receptor = biological target: T2, D2 receptor (Rattus norvegicus, UniProt P61169); experiment: Functional D2 receptor [35S]GTPγS assay (antagonist mode vs dopamine; basal for agonism); type: biochemical; conditions: against 40 µM dopamine, rat striatal homogenate;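 also: [35S]GTPγS binding counted by scintillation after 60 min at 30 °C, nonspecific binding defined with 100 µM unlabeled GTPγS, inhibition curves fitted by one-site nonlinear regression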
T2 construct: 15μg/mL of striatal homogenate was incubated in triplicate; from tissue; host or cells: rat striatum homogenate

5-HT2A receptor = 5-HT2A receptor (Rattus norvegicus, UniProt P14842); experiment: 5-HT2A competition binding assay ([3H]ketanserin, frontal cortex homogenates); conditions: read-out: 5-HT2A Ki (95% CI)
human 5-HT2C receptor = biological target: T3, human 5-HT2C receptor (Homo sapiens, UniProt P28335); experiment: 5-HT2C competition binding assay ([3H]mesulergine, transfected cell membranes); conditions: [3H]mesulergine, human 5-HT2C membranes
T3 sequence (P28335 33-458): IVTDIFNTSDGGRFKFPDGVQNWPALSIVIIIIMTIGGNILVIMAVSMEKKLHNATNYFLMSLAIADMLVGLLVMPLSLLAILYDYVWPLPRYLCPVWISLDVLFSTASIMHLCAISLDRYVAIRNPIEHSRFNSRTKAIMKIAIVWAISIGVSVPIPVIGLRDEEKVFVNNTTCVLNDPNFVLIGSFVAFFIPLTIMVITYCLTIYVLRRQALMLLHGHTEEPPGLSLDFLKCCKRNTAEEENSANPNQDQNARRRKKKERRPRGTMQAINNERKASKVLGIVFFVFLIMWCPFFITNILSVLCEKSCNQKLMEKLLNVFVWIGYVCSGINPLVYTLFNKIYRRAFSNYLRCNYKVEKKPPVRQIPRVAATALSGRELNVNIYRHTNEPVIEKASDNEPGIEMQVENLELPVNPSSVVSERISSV

[1] = test system: 5-HT2A receptors (5-HT-induced contractions in the rat ileum); experiment: 5-HT-evoked contractions of isolated rat ileum; conditions: for Emax, maximal inhibitory effect on 5-HT-induced contractions in the rat ileum: 5-HT 10^−5 M, compounds 10^−8–10^−5 M
mice [2] = experiment: Elevated plus-maze test (EPM); type: in vivo, mouse; conditions: 5 mg/kg i.p., 60 min before the test
Experimental: The experiments were carried out, in the Experimental Medicine Center of Medical University of Lublin, on six-week-old naive male Swiss mice, weighing 24–30 g. The mice were housed in cages, five individuals per cage in an environmentally controlled rooms (ambient temperature 22 ± 1 °C; relative humidity 50–60%; 12 h light/dark cycle, lights on at 8:00). Standard laboratory food(LSM-Agropol-Motycz, Lublin, Poland) and filtered water were available ad libitum. All the experimental procedures were carried out, according to the National Institute of Health Guidelines for the Care and Use of Laboratory Animals and to the European Community Council Directive for the Care and Use of Laboratory Animals of 22 September 2010 (2010/63/EU) and approved by the Local Ethics Committee for Animal Experimentation in Lublin. The investigated compounds (Norbo-4, Norbo-8, Norbo-10, Norbo-14, Norbo-18 and Norbo-20) in all tests were administered intraperitoneally (i.p.), dissolved in dimethyl sulfoxide (DMSO, final concentration of 0.1%) and then diluted by aqueous solution of 0.5% methylcellulose (tylose) and injected 60 min before the tests. […] All compounds were given in a volume of 10 mL/kg to mice. The control animals received an equivalent volume of the solvent at the respective time before the tests. All the experiments were conducted in the light phase between 09.00 a.m. and 14.00 p.m. The experiments were performed by an observer unaware of the treatment administered. The EPM studies were carried out on mice according to the method of Lister. The EPM apparatus was made of plexiglass and consisted of two open (30 × 5 cm) and two enclosed (30 × 5 × 15 cm) arms. The arms extended from a central platform of 5 × 5 cm. The apparatus was mounted on a plexiglass base, raising it 38.5 cm above the floor, and illuminated by a red light. The test consisted of placing a mouse in the center of the apparatus (facing an open arm) and allowing it to freely explore. The number of entries into the open arms and the time spent in these arms were scored for a 5 min test period. An entry was defined as placing all four paws within the boundaries of the arm. The following measures were obtained from the test: the total number of arm entries; the percentage of arm entries into the open arms; and the time spent in the open arms expressed as a percentage of the time spent in both the open and closed arms. Anxiolytic activity was indicated by increases in the time spent in open arms and in the number of open arm entries. The total number of entries into either type of arm was used additionally as a measure of overall motor activity.

mice [3] = experiment: Forced swim test (FST, Porsolt's test); type: in vivo, mouse; conditions: 15 mg/kg i.p., 60 min before the test
Experimental: The experiments were carried out, in the Experimental Medicine Center of Medical University of Lublin, on six-week-old naive male Swiss mice, weighing 24–30 g. The mice were housed in cages, five individuals per cage in an environmentally controlled rooms (ambient temperature 22 ± 1 °C; relative humidity 50–60%; 12 h light/dark cycle, lights on at 8:00). Standard laboratory food(LSM-Agropol-Motycz, Lublin, Poland) and filtered water were available ad libitum. All the experimental procedures were carried out, according to the National Institute of Health Guidelines for the Care and Use of Laboratory Animals and to the European Community Council Directive for the Care and Use of Laboratory Animals of 22 September 2010 (2010/63/EU) and approved by the Local Ethics Committee for Animal Experimentation in Lublin. The investigated compounds (Norbo-4, Norbo-8, Norbo-10, Norbo-14, Norbo-18 and Norbo-20) in all tests were administered intraperitoneally (i.p.), dissolved in dimethyl sulfoxide (DMSO, final concentration of 0.1%) and then diluted by aqueous solution of 0.5% methylcellulose (tylose) and injected 60 min before the tests. […] All compounds were given in a volume of 10 mL/kg to mice. The control animals received an equivalent volume of the solvent at the respective time before the tests. All the experiments were conducted in the light phase between 09.00 a.m. and 14.00 p.m. The experiments were performed by an observer unaware of the treatment administered. The experiment was carried out according to the method of Porsolt et al.. Mice were individually placed in a glass cylinder (25 cm high; 10 cm in diameter) containing water maintained at 23–25 °C, and were left there for 6 min. The total duration of immobility was recorded during the last 4 min of a 6-min test session. A mouse was regarded as immobile when it remained floating on the water, making only small movements to keep its head above the water.

[4] = rat hippocampus homogenate, ± SEM, read-out: 5-HT1A Receptor G-Protein Stimulation pEC50 (converted)
[5] = read-out: D2 receptor antagonistic activity IC50 (95% CI)
[6] = read-out: D2 receptor antagonistic activity pIC50 (M ± SEM) (converted)
[7] = rat hippocampus homogenate, read-out: 5-HT1A Receptor G-Protein Stimulation EC50 (95% CI)
[8] = rat hippocampus homogenate, ± SEM

T2 sequence (P61169 whole entry): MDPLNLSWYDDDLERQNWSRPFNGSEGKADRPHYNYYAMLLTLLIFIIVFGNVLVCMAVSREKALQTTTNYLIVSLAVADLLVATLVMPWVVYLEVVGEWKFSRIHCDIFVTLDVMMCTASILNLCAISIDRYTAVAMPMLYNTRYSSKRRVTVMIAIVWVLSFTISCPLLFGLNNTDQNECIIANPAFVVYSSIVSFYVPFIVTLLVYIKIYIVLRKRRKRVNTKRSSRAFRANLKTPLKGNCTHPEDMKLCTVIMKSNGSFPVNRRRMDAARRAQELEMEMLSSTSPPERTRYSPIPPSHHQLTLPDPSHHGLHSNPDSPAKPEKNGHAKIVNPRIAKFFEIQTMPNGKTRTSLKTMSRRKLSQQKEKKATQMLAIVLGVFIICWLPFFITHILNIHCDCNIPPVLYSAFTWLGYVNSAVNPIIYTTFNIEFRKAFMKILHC
Sequence of 5-HT2A receptor (P14842 whole entry): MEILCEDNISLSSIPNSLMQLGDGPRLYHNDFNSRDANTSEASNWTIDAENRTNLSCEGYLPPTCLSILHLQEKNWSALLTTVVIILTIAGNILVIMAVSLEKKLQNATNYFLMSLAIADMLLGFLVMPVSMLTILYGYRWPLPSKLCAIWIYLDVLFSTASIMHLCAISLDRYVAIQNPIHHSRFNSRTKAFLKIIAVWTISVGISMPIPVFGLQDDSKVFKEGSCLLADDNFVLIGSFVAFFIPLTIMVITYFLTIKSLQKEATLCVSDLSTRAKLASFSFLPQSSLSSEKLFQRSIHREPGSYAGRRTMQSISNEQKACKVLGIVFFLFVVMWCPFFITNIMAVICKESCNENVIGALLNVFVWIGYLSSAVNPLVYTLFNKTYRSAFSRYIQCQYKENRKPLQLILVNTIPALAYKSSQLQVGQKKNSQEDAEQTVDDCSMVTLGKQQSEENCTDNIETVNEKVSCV

| SMILES | 5-HT1A Receptor G-Protein Stimulation Emax (%) ± SEM (5-HT1A receptor; rat hippocampus homogenate) | EC50 (5-HT1A receptor; [4]) | IC50 (D2 receptor; [5]) | Ki (5-HT2A receptor) | Ki (human 5-HT2C receptor; read-out: 5-HT2C Ki (95% CI)) | Emax, maximal inhibitory effect on 5-HT-induced contractions in the rat ileum [1] | other results |
| --- | --- | --- | --- | --- | --- | --- | --- |
| COc1ccccc1N1CCN(CCCNC(=O)C2CC3C=CC2C3)CC1 (single isomer, unassigned) [Norbo-5, Exo-N-(3-(4-(2-methoxyphenyl)piperazin-1-yl)propyl)bicyclo[2.2.1]hept-5-ene-2-carboxamide] | 140 ± 25.2 ^&& % | 10000 nM | 33400 nM | 45.7 nM | 1820 nM | 15.42% | IC50 (D2 receptor; [6]): 33900 nM |
| O=C(c1ccc(F)cc1)C1CCN(CCn2c(=O)[nH]c3ccccc3c2=O)CC1 [Ketanserin, reference compound] | – | – | – | – | – | – | effect on contractions induced by 5-HT ([1]; preliminary experiments, 0.1 µM): depressed the contractions induced by 5-HT |
| O=C(NCCCN1CCN(c2ccccc2F)CC1)C1CC2C=CC1C2 (stereo not drawn) [Norbo-16, endo.-N-(3-(4-(2-fluorophenyl)piperazin-1-yl)propyl)bicyclo[2.2.1]hept-5-ene-2-carboxamide] | 182 ± 5.5 **^,# % | – | 41500 nM | 73.3 nM | 1540 nM | 23.47% | EC50 (5-HT1A receptor; [7]): 939 nM |
| O=C(NCCCN1CCN(c2ccc(F)cc2)CC1)C1CC2C=CC1C2 (stereo not drawn) [Norbo-17, Exo-N-(3-(4-(4-fluorophenyl)piperazin-1-yl)propyl)bicyclo[2.2.1]hept-5-ene-2-carboxamide] | 122 ± 2.0 ^&&& % | 631 nM | 59500 nM | 22.7 nM | 2360 nM | 32.50% | EC50 (5-HT1A receptor; [7]): 553 nM; IC50 (D2 receptor; [6]): 60300 nM; Ki (human 5-HT2C receptor; ± SEM, read-out: 5-HT2C pKi (converted)): 2400 nM |
| O=C(NCCCN1CCN(c2cccc(C(F)(F)F)c2)CC1)C1CC2C=CC1C2 (stereo not drawn) [Norbo-19, Exo-N-(3-(4-(3-(trifluoromethyl)phenyl)piperazin-1-yl)propyl)bicyclo[2.2.1]hept-5-ene-2-carboxamide] | – | 316 nM | 144000 nM | 42.6 nM | 167 nM | 39.00% | Emax (5-HT1A receptor; rat hippocampus homogenate, read-out: 5-HT1A Receptor G-Protein Stimulation Emax (%) ± SEM): 162 ± 2.1% |
| O=C(NCCCN1CCN(c2cccc(C(F)(F)F)c2)CC1)C1CC2C=CC1C2 (stereo not drawn) [Norbo-20, endo-N-(3-(4-(3-(trifluoromethyl)phenyl)piperazin-1-yl)propyl)bicyclo[2.2.1]hept-5-ene-2-carboxamide] | 167 ± 1.4 % | 200 nM | 52700 nM | 22.9 nM | 1950 nM | 21.79% | IC50 (D2 receptor; [6]): 56200 nM |
| O=C(NCCCN1CCN(C(=O)c2ccco2)CC1)C1CC2C=CC1C2 (stereo not drawn) [Norbo-27, Exo-N-(3-(4-(furan-2-carbonyl)piperazin-1-yl)propyl)bicyclo[2.2.1]hept-5-ene-2-carboxamide] | no activity | – | 66600 nM | 1130 nM | 1780 nM | – | 5-HT1A Receptor G-Protein Stimulation EC50 (95% CI, nM) (5-HT1A receptor; rat hippocampus homogenate): no activity; 5-HT1A Receptor G-Protein Stimulation pEC50 (5-HT1A receptor; [8]): no activity; agonist activity at the 5-HT1A receptor (5-HT1A receptor): no agonist activity |
| O=C(NCCCN1CCN(C(=O)c2ccco2)CC1)C1CC2C=CC1C2 (stereo not drawn) [Norbo-28, endo-N-(3-(4-(furan-2-carbonyl)piperazin-1-yl)propyl)bicyclo[2.2.1]hept-5-ene-2-carboxamide] | – | – | – | 1070 nM | 3930 nM | – | 5-HT1A Receptor G-Protein Stimulation pEC50 (5-HT1A receptor; [8]): no activity; agonist activity at the 5-HT1A receptor (5-HT1A receptor): no agonist activity; D2 receptor antagonistic activity IC50 (95% CI, µM) (D2 receptor): no activity; D2 receptor antagonistic activity pIC50 (M ± SEM) (D2 receptor): no activity |
| O=C1CC2(CCCC2)CC(=O)N1CCCCN1CCN(c2ncccn2)CC1 [buspirone, reference compound] | – | – | – | – | – | – | percentage of the open arm entries (EPM) (mice [2]): significant increase; percentage of time spent in open arms (EPM) (mice [2]): significant increase; percentage of the open arm entries (EPM) (mice [2]; listed as Buspirone): increased the percentage of entries into the open arms; percentage of time spent in open arms (EPM) (mice [2]; listed as Buspirone): prolonged the time |
| CN[C@H]1CC[C@@H](c2ccc(Cl)c(Cl)c2)c2ccccc21 [sertraline, reference compound] | – | – | – | – | – | – | immobility time in FST (mice [3]): significant reduction in the immobility time; immobility time in FST (mice [3]; listed as Sertraline): significantly shortened the immobility time |
| NC1=N[C@H](O)[C@H]2[C@H]3O[C@]4(O)O[C@@H]([C@@H](O)[C@@]2(N1)[C@@H]4O)[C@]3(O)CO [tetrodotoxin, reference compound] | – | – | – | – | – | – | effect on contractions induced by 5-HT [1]: did not affect the contractions by 5-HT |
